# Laboratory results from patent publication US11261454B2, “Method for introducing a polynucleotide into non-adhesively growing plant cells” (ScreenSYS GmbH, priority 2010, dated 2022).
# Experiments:
# [1] = system: protoplasts from wild type tobacco; assay: Quantitative analysis of auxin mediated cell expansion of immobilised tobacco protoplasts (automated imaging); format: cell-based; details: auxin 0 to 50 μM, at least 200 cells per group
# Text: We compared the effect of auxin concentration on cell elongation over a continuous period (4-6 days) using tobacco leaf protoplasts from wild type tobacco and from the tobacco line overexpressing AtPIN8 translationally fused with Venus fluorescent marker protein (PIN8VenusOx). Two strategies were used: • effect of PIN5 and PIN8 expression on cell elongation using transient transformation with dried DNA, protoplast immobilization and culture with manual cell imaging and tracking. • effect of auxin concentration (0, 1 pM, 10 pM, 100 pM, 500 pM, 1 nM, 10 nM, 100 nM, 500 nM, 1 μM, 2.5 μM, 5 μM, 10 μM, 25 μM and 50 μM) and quantitative analysis of cell elongation to compare wild type and PIN8VenusOx protoplasts using automated imaging (every 24 h for 4 days, 5 reference points) and computational image analysis.
# Protoplasts were isolated and immobilized using our procedure described in the current patent application. Culture medium with final auxin concentration of 0, 1 pM, 10 pM, 100 pM, 500 pM, 1 nM, 10 nM, 100 nM, 500 nM, 1 μM, 2.5 μM, 5 μM. 10 μM. 25 μM and 50 μM was used for washing steps and cell culture afterwards in corresponding wells. […] This experiment allowed to extract quantitative information for hundreds cells per group, the whole experiment was performed in a single 96-well plate. […]
# PIN1 = assay: Expression of amiR^PIN1 in stable transgenic lines, plant phenotypes; format: in vivo, Arabidopsis (Col-0 wild-type background); details: independent lines
# auxin sensor construst = assay: Luciferase activity measurement with auxin sensor construct (firefly/renilla ratio); format: cell-based
# Text: Our further aim to combine PPTT with amiRNA and other functional screenings such as split-GFP, split-YFP etc. Since co-expression of vectors works perfect, split screenings could be done straight away using confirmed interacting pair. Transformation with the luciferase reporter and subsequent luciferase activity measurements were successfully tested using auxin sensor construst (FIG. 19).
molecule,measurement,setting,value
auxin,cell expansion of developing protoplasts,[1],Concentration-depended cell expansion
"amiR^P33: artificial miRNA TACGATTTGAACCATGAGGCC, SEQ ID NO:10 (expressed or natural sequence)",rosette leaf phenotype of transgenic plants,PIN1; 2 weeks after germination,Altered phyllotaxis pattern of rosette leaves
same,shoot phenotype of transgenic lines,PIN1,Altered shoot phyllotaxis and pin1-like shoot phenotypes
O=C(O)Cc1cccc2ccccc12 [NAA],effect on firefly/renilla ratio,auxin sensor construst,Concentration-dependent effect
